In brackets after ≈: the same amount, converted by molar mass.
Each molecule was assayed on Mycobacterium smegmatis (ATCC607) (assay: In-vitro anti-bacterial activity against strain M. Smegmatis ATCC607). Details: 90% inhibitory concentration for bacterial growth, 48 hours, Alamar Blue fluorescence.
Type: cell-based
Protocol: D.1. In-Vitro Method for Testing Compounds for Anti-Bacterial Activity Against Strain M. Smegmatis ATCC607
Flat-bottom, sterile 96-well plastic microtiter plates were filled with 180 μl of sterile deionized water, supplemented with 0.25% BSA. Subsequently, stock solutions (7.8× final test concentration) of compounds were added in 45 μl volumes to a series of duplicate wells in column 2 so as to allow evaluation of their effects on bacterial growth. Serial five-fold dilutions (45 μl in 180 μl) were made directly in the microtiter plates from column 2 to 11 using a customised robot system (Zymark Corp., Hopkinton, Mass.). Pipette tips were changed after every 3 dilutions to minimize pipetting errors with high hydrophobic compounds. Untreated control samples with (column 1) and without (column 12) inoculum were included in each microtiter plate. Approximately 250 CFU per well of bacteria inoculum, in a volume of 100 μl in 2.8× Mueller-Hinton broth medium, was added to the rows A to H, except column 12. The same volume of broth medium without inoculum was added to column 12 in row A to H. The cultures were incubated at 37° C. for 48 hours in a humidified 5% CO2 atmosphere (incubator with open air valve and continuous ventilation). At the end of incubation, two days after inoculation, the bacterial growth was quantitated fluorometrically. Therefore Alamar Blue (10×) was added to all wells in a volume of 20 μl and plates were incubated for another 2 hours at […]
The fluorescence was read in a computer-controlled fluorometer (Cytofluor, Biosearch) at an excitation wavelength of 530 nm and an emission wavelength of 590 nm (gain 30). The percentage growth inhibition achieved by the compounds was calculated according to standard methods and expressed as IC90 (μg/ml) which defines the 90% inhibitory concentration for bacterial growth.

Row | Structure (SMILES) | IC90 MSM 607 [µg/mL]
1 | COc1nc2ccc(Cl)cc2cc1C(c1ccc(Cl)cc1)C1(O)CCNC(c2ccc(F)cc2C)C1 (single isomer, unassigned) [Compound 1] | 1.66 (≈ 3.16 µM)
2 | COc1nc2ccc(Cl)cc2cc1C(c1ccc(Cl)cc1)C1(O)CCNC(c2ccc(F)cc2C)C1 (single isomer, unassigned) [Compound 4] | 2.09 (≈ 3.98 µM)
3 | O=c1[nH]c2ccc(Cl)cc2cc1C(c1ccc(Cl)cc1)C1(O)CCNC(Cc2ccccc2)C1 (stereo not shown) [Compound 5] | 1.67 (≈ 3.38 µM)
4 | O=c1[nH]c2ccc(Br)cc2cc1C(c1ccc(Cl)cc1)C1(O)CCNC(CC2CCCCC2)C1 (stereo not shown) [Compound 6] | 9.18 (≈ 16.9 µM)
5 | Cc1cc(F)ccc1C1CC(O)(C(c2ccc(Cl)cc2)c2cc3cc(Br)ccc3[nH]c2=O)CCN1 (stereo not shown) [Compound 7] | 0.94 (≈ 1.69 µM)
6 | COc1nc2ccc(F)cc2cc1C(c1ccc(Cl)cc1)C1(O)CCN(C(C)c2ccccc2)C(CO)C1 (stereo not shown) [Compound 14] | 3.79 (≈ 7.08 µM)
7 | COc1nc2ccc(Cl)cc2cc1C(c1ccc(Cl)cc1)C1(O)CCNC(c2cccnc2)C1 (stereo not shown) [Compound 28] | 3.12 (≈ 6.31 µM)
8 | COc1nc2ccc(Br)cc2cc1C(c1ccc(Cl)cc1)C1(O)CCNC(Cc2ccccc2)C1 (stereo not shown) [Compound 32] | 1.56 (≈ 2.83 µM)
9 | Cc1cc(F)ccc1C1CC(O)(C(c2cccc(Cl)c2)c2cc3cc(S(C)(=O)=O)ccc3[nH]c2=O)CCN1 (stereo not shown) [Compound 42] | 2.60 (≈ 4.68 µM)
10 | Cc1cc(F)ccc1C1CC(O)(C(c2ccccc2)c2cc3cc(Br)ccc3[nH]c2=O)CCN1 (stereo not shown) [Compound 43] | 3.48 (≈ 6.67 µM)
11 | COc1nc2ccc(Br)cc2cc1C(c1ccc(Cl)cc1)C1(O)CCNCC1Cc1cccc(F)c1 (stereo not shown) [Compound 48] | 0.72 (≈ 1.26 µM)

Other lines, results leading:

Row | IC90 MSM 607 [µg/mL] | Structure (SMILES)
12 | >15.22 | CS(=O)(=O)c1ccc2[nH]c(=O)c(C(c3ccc(Cl)cc3)C3(O)CCN[C@@H](Cc4ccc(F)c(F)c4)C3)cc2c1 (stereo in doubt) [Compound 205]
13 | >15.08 | CS(=O)(=O)c1ccc2[nH]c(=O)c(C(c3ccc(Cl)cc3)C3(O)CCN[C@@H](Cc4ccc(F)c(F)c4)C3)cc2c1 (stereo in doubt) [Compound 206]
14 | 3.83 (≈ 6.68 µM) | CS(=O)(=O)c1ccc2[nH]c(=O)c(C(c3ccc(Cl)cc3)C3(O)CCN[C@@H](Cc4ccc(F)c(F)c4)C3)cc2c1 (stereo in doubt) [Compound 207]
15 | 9.57 (≈ 16.7 µM) | CS(=O)(=O)c1ccc2[nH]c(=O)c(C(c3ccc(Cl)cc3)C3(O)CCN[C@@H](Cc4ccc(F)c(F)c4)C3)cc2c1 (stereo in doubt) [Compound 208]
16 | 1.79 (≈ 3.22 µM) | O=c1[nH]c2ccc(Br)cc2cc1C(c1ccc(Cl)cc1)C1(O)CCNCC1Cc1cccc(F)c1 (stereo not shown) [Compound 49]
17 | 1.17 (≈ 1.99 µM) | COc1nc2ccc(Br)cc2cc1C(c1ccc(Cl)cc1)C1(O)CCNC(Cc2ccc(F)cc2F)C1 (stereo not shown) [Compound 51]
18 | 1.77 (≈ 3.6 µM) | COc1nc2ccc(F)cc2cc1C(c1ccc(Cl)cc1)C1(O)CCNC(Cc2ccccc2)C1 (stereo not shown) [Compound 54]
19 | 3.90 (≈ 7.94 µM) | COc1nc2ccc(F)cc2cc1C(c1ccc(Cl)cc1)C1(O)CCNC(Cc2ccccc2)C1 (stereo not shown) [Compound 55]
20 | 3.50 (≈ 6.31 µM) | CS(=O)(=O)c1ccc2[nH]c(=O)c(C(c3ccc(Cl)cc3)C3(O)CCNC(Cc4ccc(F)cc4)C3)cc2c1 (stereo not shown) [Compound 57]

The molecules below were run on Staphylococcus aureus (ATCC29213) (assay: In-vitro anti-bacterial activity, microtitre plate assay, IC90 determination (non-mycobacterial strains)). Details: 90% inhibitory concentration for bacterial growth, 24 hours, resazurin fluorescence.
Type: cell-based
Protocol: D.2. In-Vitro Method for Testing Compounds for Anti-Bacterial Activity Against Various Non-Mycobacterial Strains
Preparation of Bacterial Suspensions for Susceptibility Testing:
The bacteria used in this study were grown overnight in flasks containing 100 ml Mueller-Hinton Broth (Becton Dickinson—cat. no. 275730) in sterile de-ionized water, with shaking, at 37° C. Stocks (0.5 ml/tube) were stored at −70° C. until use. Bacteria titrations were performed in microtiter plates to detect the TCID50, in which TCID50 represents the dilution that gives rise to bacterial growth in 50% of inoculated cultures. In general, an inoculum level of approximately 100 TCID50 was used for susceptibility testing.
Anti Bacterial Susceptibility Testing: IC90 Determination
Flat-bottom, sterile 96-well plastic microtiter plates were filled with 180 μl of sterile deionized water, supplemented with 0.25% BSA. Subsequently, stock solutions (7.8× final test concentration) of compounds were added in 45 μl volumes in column 2 Serial five-fold dilutions (45 μl in 180 μl) were made directly in the microtiter plates from column 2 to reach column 11. Untreated control samples with (column 1) and without (column 12) inoculum were included in each microtiter plate. Depending on the bacteria type, approximately 10 to 60 CFU per well of bacteria inoculum (100 TCID50), in a volume of 100 μl in 2.8× Mueller-Hinton broth medium, was added to the rows A to H, except column 12. The same volume of broth medium without inoculum was added to column 12 in row A to H. The cultures were incubated at 37° C. for 24 hours under a normal atmosphere (incubator with open air valve and continuous ventilation). At the end of incubation, one day after inoculation, the bacterial growth was quantitated fluorometrically. Therefore resazurin (0.6 mg/ml) was added in a volume of 20 μl to all wells 3 hours after inoculation, and the plates were re-incubated overnight. A change in colour from blue to pink indicated the growth of bacteria. The fluorescence was read in a computer-controlled fluorometer (Cytofluor Biosearch) at an excitation wavelength of 530 nm and an emission wavelength of 590 nm. The % growth inhibition achieved by the compounds was calculated according to standard methods. The IC90 (expressed in μg/ml) was defined as the 90% inhibitory concentration for bacterial growth.

Row | Structure (SMILES) | IC90 STA B29213 [µg/mL]
21 | COc1nc2ccc(Cl)cc2cc1C(c1ccc(Cl)cc1)C1(O)CCNC(c2ccc(F)cc2C)C1 (single isomer, unassigned) [Compound 1] | 3.32 (≈ 6.32 µM)
22 | COc1nc2ccc(Cl)cc2cc1C(c1ccc(Cl)cc1)C1(O)CCNC(c2ccc(F)cc2C)C1 (single isomer, unassigned) [Compound 4] | 2.63 (≈ 5.01 µM)
23 | O=c1[nH]c2ccc(Cl)cc2cc1C(c1ccc(Cl)cc1)C1(O)CCNC(Cc2ccccc2)C1 (stereo not shown) [Compound 5] | 1.67 (≈ 3.38 µM)
24 | O=c1[nH]c2ccc(Br)cc2cc1C(c1ccc(Cl)cc1)C1(O)CCNC(CC2CCCCC2)C1 (stereo not shown) [Compound 6] | 1.83 (≈ 3.36 µM)
25 | Cc1cc(F)ccc1C1CC(O)(C(c2ccc(Cl)cc2)c2cc3cc(Br)ccc3[nH]c2=O)CCN1 (stereo not shown) [Compound 7] | 1.49 (≈ 2.68 µM)
26 | COc1nc2ccc(F)cc2cc1C(c1ccc(Cl)cc1)C1(O)CCN(C(C)c2ccccc2)C(CO)C1 (stereo not shown) [Compound 14] | 6.74 (≈ 12.6 µM)
27 | COc1nc2ccc(Cl)cc2cc1C(c1ccc(Cl)cc1)C1(O)CCNC(c2cccnc2)C1 (stereo not shown) [Compound 28] | 6.22 (≈ 12.6 µM)
28 | COc1nc2ccc(Br)cc2cc1C(c1ccc(Cl)cc1)C1(O)CCNC(Cc2ccccc2)C1 (stereo not shown) [Compound 32] | 3.48 (≈ 6.31 µM)
29 | Cc1cc(F)ccc1C1CC(O)(C(c2cccc(Cl)c2)c2cc3cc(S(C)(=O)=O)ccc3[nH]c2=O)CCN1 (stereo not shown) [Compound 42] | 7.34 (≈ 13.2 µM)
30 | Cc1cc(F)ccc1C1CC(O)(C(c2ccccc2)c2cc3cc(Br)ccc3[nH]c2=O)CCN1 (stereo not shown) [Compound 43] | 3.48 (≈ 6.67 µM)
31 | COc1nc2ccc(Br)cc2cc1C(c1ccc(Cl)cc1)C1(O)CCNCC1Cc1cccc(F)c1 (stereo not shown) [Compound 48] | 0.90 (≈ 1.58 µM)

Results, then the molecule that gave them:

Row | IC90 STA B29213 [µg/mL] | Structure (SMILES)
32 | >15.22 | CS(=O)(=O)c1ccc2[nH]c(=O)c(C(c3ccc(Cl)cc3)C3(O)CCN[C@@H](Cc4ccc(F)c(F)c4)C3)cc2c1 (stereo in doubt) [Compound 205]
33 | >15.08 | CS(=O)(=O)c1ccc2[nH]c(=O)c(C(c3ccc(Cl)cc3)C3(O)CCN[C@@H](Cc4ccc(F)c(F)c4)C3)cc2c1 (stereo in doubt) [Compound 206]
34 | 3.83 (≈ 6.68 µM) | CS(=O)(=O)c1ccc2[nH]c(=O)c(C(c3ccc(Cl)cc3)C3(O)CCN[C@@H](Cc4ccc(F)c(F)c4)C3)cc2c1 (stereo in doubt) [Compound 207]
35 | 7.60 (≈ 13.3 µM) | CS(=O)(=O)c1ccc2[nH]c(=O)c(C(c3ccc(Cl)cc3)C3(O)CCN[C@@H](Cc4ccc(F)c(F)c4)C3)cc2c1 (stereo in doubt) [Compound 208]
36 | 2.34 (≈ 3.98 µM) | COc1nc2ccc(Br)cc2cc1C(c1ccc(Cl)cc1)C1(O)CCNC(Cc2ccc(F)cc2F)C1 (stereo not shown) [Compound 51]
37 | 3.54 (≈ 7.21 µM) | COc1nc2ccc(F)cc2cc1C(c1ccc(Cl)cc1)C1(O)CCNC(Cc2ccccc2)C1 (stereo not shown) [Compound 54]
38 | 6.19 (≈ 12.6 µM) | COc1nc2ccc(F)cc2cc1C(c1ccc(Cl)cc1)C1(O)CCNC(Cc2ccccc2)C1 (stereo not shown) [Compound 55]
39 | 3.50 (≈ 6.31 µM) | CS(=O)(=O)c1ccc2[nH]c(=O)c(C(c3ccc(Cl)cc3)C3(O)CCNC(Cc4ccc(F)cc4)C3)cc2c1 (stereo not shown) [Compound 57]

Same assay, conditions: Staphylococcus aureus, ATCC29213, 24 h, 90% inhibitory concentration for bacterial growth, resazurin fluorescence, read-out: IC90 STA B29213

Row | IC90 [µg/mL] | Structure (SMILES)
40 | 2.25 (≈ 4.05 µM) | O=c1[nH]c2ccc(Br)cc2cc1C(c1ccc(Cl)cc1)C1(O)CCNCC1Cc1cccc(F)c1 (stereo not shown) [Compound 49]
